Key:
[1] = target: T1, Recombinant truncated stromelysin (human sequence) (Homo sapiens, UniProt P08254); experiment: Determination of Stromelysin Inhibition; type: biochemical; conditions: cleavage of thiopeptide ester substrate Ac-Pro-Leu-Gly-[2-mercapto-4-methyl-pentanoyl]-Leu-Gly-OEt, DTNB read at 405 nm, 30 minute assay at ambient temperature, 50 mM MES/NaOH 6.5
T1 construct: made in house; host or cells: E. coli
Method: The efficacy of the compounds of this invention as matrix metalloproteinase inhibitors was determined by measuring the inhibition of stromelysin. The inhibition of stromelysin by the compounds of this invention was determined as follows: Recombinant truncated stromelysin (human sequence) produced in E. coli was prepared by expression and purification of the protein as described by Ye et al. (Biochemistry, 1992, 31, 11231-11235, which is incorporated herein by reference). The enzyme was assayed by its cleavage of the thiopeptide ester substrate Ac-Pro-Leu-Gly-[2-mercapto-4-methyl-pentanoyl]-Leu-Gly-OEt as described by Weingarten and Feder (Anal. Biochem., 1985, 147, 437-440 (1985), which is incorporated herein by reference) as a substrate of vertebrate collagenase. The reported conditions were modified to allow assays to be carried out in a microtiter plate. Upon hydrolysis of the thioester bond, the released thiol group reacted rapidly with 5,5′-dithio-bis(2-nitrobenzoic acid) (DTNB) to produce a yellow color which was measured by a microtiter plate reader set at 405 nm. The rates of cleavage of the substrate by stromelysin in the presence or absence of inhibitors were measured in a 30 minute assay at ambient temperature. Solutions of the compounds in DMSO were prepared, and these were diluted at various concentrations into the assay buffer (50 mM MES/NaOH 6.5 with 10 mM CaCl2 and 0.2% Pluronic F-68), which was also used for dilution of the enzyme and substrate. The potency of the compounds [IC50] was calculated from the inhibition/inhibitor concentration data.

T1 sequence (P08254 100-272 limits assumed): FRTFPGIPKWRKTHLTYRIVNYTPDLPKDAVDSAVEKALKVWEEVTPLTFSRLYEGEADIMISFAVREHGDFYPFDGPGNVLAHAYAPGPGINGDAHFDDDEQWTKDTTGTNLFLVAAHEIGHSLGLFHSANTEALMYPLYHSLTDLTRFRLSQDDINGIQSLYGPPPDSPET

melting point [°C] | IC50 [1] [µM] | SMILES
68 to 70 | 0.017 | CN1C(=O)N(CCC(COc2ccc(-c3ccc(C#N)cc3)cc2)N(O)C=O)C(=O)C1(C)C (racemic) [Example 5, (±)-N-[1-[[(4′-cyano-[1,1′-biphenyl]-4-yl)oxy]methyl]-3-(3,4,4-trimethyl-2,5-dioxoimidazolidiny-1-yl)propyl]-N-hydroxyformamide]
203 to 205 | – | CN1C(=O)N(CC(COc2ccc(-c3ccc(S(N)(=O)=O)cc3)cc2)N(O)C=O)C(=O)C1(C)C (centres unmarked) [Example 114, N-[1-[[[4′-(aminosulfonyl)[1,1′-biphenyl]-4-yl]oxy]methyl]-2-(3,4,4-trimethyl-2,5-dioxo-1-imidazolidinyl)ethyl]-N-hydroxyformamide]
195 to 197 | – | CC1(C)NC(=O)N(CC(CS(=O)(=O)c2ccc(-c3ccc(OC(F)(F)F)cc3)cc2)N(O)C=O)C1=O (centres unmarked) [Example 115, N-[1-[[[4′-(trifluoromethoxy)[1,1′-biphenyl]-4-yl]sulfonyl]methyl]-2-(4,4-dimethyl-2,5-dioxo-1-imidazolidinyl)ethyl]-N-hydroxyformamide]

More lines, now with the values behind:

SMILES | melting point [°C] | IC50 [1] [µM]
CN1C(=O)N(CC(COc2ccc(-c3ccc(C#N)cc3)cc2)N(O)C=O)C(=O)C1(C)C (racemic) [Example 4, (±)-N-[1-[[(4′-cyano-[1,1′-biphenyl]-4-yl)oxy]methyl]-2-(3,4,4-trimethyl-2,5-dioxoimidazolidin-1-yl)ethyl]-N-hydroxyformamide] | 65 to 67 | 0.0091
CC(C)CC(COc1ccc(-c2ccc(C#N)cc2)cc1)N(O)C=O (racemic) [Example 7, (±)-N-[1-[[(4′-cyano-[1,1′-biphenyl]-4-yl)oxy]methyl]-3-methylbutyl]-N-hydroxyformamide] | 112 to 113 | 0.12
